In ChEMBL document CHEMBL1158888, “New bioactive rosigenin analogues and aromatic polyketide metabolites from the freshwater aquatic fungus Massarina tunicata” (2003):
Active and inactive are the calls of the source. The calls are words filed in the database; no cut-off is given here.

Experiments:
Bacillus subtilis [1] = test: Antimicrobial activity against Bacillus subtilis ATCC 6051 at 200 ug/disk by standard disk assay
Bacillus subtilis [2] = test: Antimicrobial activity against Bacillus subtilis ATCC 6051 at 200 ug/ml by standard disk assay; format: functional; settings: read-out: IZ
Staphylococcus aureus = test: Antimicrobial activity against Staphylococcus aureus ATCC 29213 at 200 ug/ml by standard disk assay; format: functional; settings: read-out: IZ

C=C1OC(=O)[C@]2([C@H](C)CCC(=O)[C@@H]2O)[C@H]1O
Activity (Bacillus subtilis [1]): inactive

C#C[C@H](O)COc1ccc(C(=O)O)cc1
zone of inhibition at 200 µg/mL (Bacillus subtilis [2]): 15 mm

C=C1OC(=O)[C@]2([C@H](C)C=CC(=O)[C@H]2O)[C@H]1O [MASSARIGENIN D]
zone of inhibition at 200 µg/mL (Bacillus subtilis [2]): 14 mm

C=C1OC(=O)[C@]2([C@H](C)C=C[C@H](O)[C@@H]2O)[C@@H]1O [MASSARIGENIN A]
zone of inhibition at 200 µg/mL (Bacillus subtilis [2]): 11 mm

C=C1OC(=O)[C@]2([C@H](C)C=CC(=O)[C@@H]2O)[C@H]1O [MASSARIGENIN C]
zone of inhibition at 200 µg/mL (Bacillus subtilis [2]): 9 mm

C[C@H]1CC(=O)c2c(coc2-c2c(O)ccc3c2OC(C)(C)C=C3)[C@@H]1O [MASSARININ B]
zone of inhibition at 200 µg/mL (Staphylococcus aureus): 12 mm
zone of inhibition at 200 µg/mL (Bacillus subtilis [2]): 23 mm

COc1c(C)cc(O)c(C(=O)c2c(O)ccc3c2OC(C)(C)C=C3)c1C=O [MASSARININ A]
zone of inhibition at 200 µg/mL (Staphylococcus aureus): 7 mm
zone of inhibition at 200 µg/mL (Bacillus subtilis [2]): 17 mm
